From patent US20200255828A1, “METHODS AND COMPOSITIONS FOR ALTERING FUNCTION AND STRUCTURE OF CHROMATIN LOOPS AND/OR DOMAINS” (THE BROAD INSTITUTE, INC., priority 2017, published 2020)
Values joined by “and” are separate entries in the source; they are usually repeats but may differ in a detail not shown here. Identical values can stand only once.

Tested on: HCT-116 RAD21-mAC cells
Assay: In situ Hi-C: loops and loop domains (HiCCUPS, APA), auxin treatment and withdrawal time course
Format: cell-based, human
Excerpt: To examine loop domains, Applicants used in situ Hi-C(Rao et al., 2014), which combines DNA-DNA proximity ligation and high-throughput sequencing to create maps showing the frequency of physical contact between all pairs of loci across the genome. Loop domains are manifest in Hi-C maps as a bright “peak” pixel (indicating the link between the two loop anchors) at the corner of a bright square (indicating the presence of a contact domain).
To see if these changes were reversible, Applicants performed a time-course analysis in which untreated cells were exposed to auxin for six hours, after which auxin was withdrawn (FIG. 2B, FIG. 9B). Low resolution Hi-C was performed immediately before treatment, as well as at a series of time points during treatment (at 20, 40, 60, 240, and 360 minutes) and after withdrawal (at 20, 40, 60, 180, 360, 1080, and 1440 minutes). To assess whether the anchors of the loop domains seen in the pre-treatment data continued to be linked (that is, co-located in space) subsequently, Applicants used a method called Aggregate Peak Analysis (APA) (Durand et al., 2016b), which superimposes the signals from a set of peak pixels, thus allowing Applicants to observe an aggregate signal even in sparse datasets where individual signals cannot be resolved (FIG. 2B). The APA signal was initially strong, but was gone by 40 minutes after treatment, and remained absent throughout the rest of the treatment period (FIG. 2B, 9B). The disappearance of the loop-domain links closely mirrored the depletion of cohesin levels in the samples during the treatment period, as ascertained by measuring mClover fluorescence (FIG. 8).
For our time course experiments, cells were treated with 500 uM IAA and crosslinked with 1% formaldehyde directly in wells of a 6-well plate at various time points after treatment (20, 40, 60, 240, 360 minutes). For the auxin withdrawal experiments, after 6 hours treatment with 500 um IAA, the cells were trypsinized, washed twice in fresh media and replated in 6-well plates in fresh media. They were then crosslinked with 1% formaldehyde directly in the 6-well plates at various time points after auxin withdrawal (20, 40, 60, 180, 360, 1080, 1440 minutes).
Applicants generated 69 in situ Hi-C libraries using the MboI restriction enzyme following the protocol described in (Rao et al., 2014) without modifications. In brief, the in situ Hi-C protocol involves crosslinking cells with formaldehyde, permeabilizing them with nuclei intact, digesting DNA with a suitable 4-cutter restriction enzyme, filling the 5′-overhangs while incorporating a biotinylated nucleotide, ligating the resulting blunt-end fragments, shearing the DNA, capturing the biotinylated ligation junctions with streptavidin beads, and analyzing the resulting fragments with paired-end sequencing.
Applicants generated 7 libraries each for the main maps (untreated HCT-116 RAD21-mAC cells and HCT-116 RAD21-mAC cells treated for 6 hours with IAA) comprised of two sets of biological replicates each (three and four technical replicate libraries per biological replicate). In addition, Applicants generated four technical replicate libraries each for untreated and treated HCT-116 RAD21-mAC cells after cell synchronization and arrest. Applicants also generated an additional 5 libraries from untreated HCT-116 RAD21-mAC cells and 4 libraries from HCT-116 RAD21-mAC cells treated for 6 hours with IAA (two additional biological replicates each) that were not included in our main maps, but were used for analysis of higher-order contacts (see below). Applicants generated four libraries (two biological replicates) for each of our loop-resolution maps along the auxin withdrawal time course (20, 40, 60 and 180 mins after auxin withdrawal). Finally, Applicants generated two technical replicate libraries per time point of our auxin treatment and withdrawal time course. […]

SMILES: O=C(O)Cc1c[nH]c2ccccc12 [auxin, indole-3-acetic acid]
- APA score for all loops after auxin treatment (10 kb resolution, >300 kb, untreated 2.09): 0.78
- APA score for loop domains after auxin treatment (10 kb resolution, >300 kb, untreated 2.10): 0.78
- number of loop domains found after auxin treatment (2,140 in untreated cells, all 9 false positives): 9
- time after auxin withdrawal by which APA signal largely recovered (after 6 hours auxin): ≤ 1 h
- time after auxin withdrawal with strong loop domain signal (after 6 hours auxin): ≤ 60 min
- number of loops annotated in auxin-treated cells (default HiCCUPS 5, 10, 25 kb, 3,170 in untreated): 81
- loops lost after auxin treatment (default HiCCUPS parameters): > 97% and ~98%
- time after auxin withdrawal at which reformation of fast loop domains is apparent (fast loop domains): 20 to 40 min
- time after auxin withdrawal until reformation of slow loop domains is seen (slow loop domains): 3 h
